# Measurements as given in patent US9708336B2, “Metallo-beta-lactamase inhibitors” (priority 2014, dated 2017).
# Read-outs that look alike come from different tables or passages of the source.
# Legend:
# NDM-1 = NDM-1 (Klebsiella pneumoniae, UniProt C7C422); assay: biochemical; type: biochemical
# IMP-1 = IMP-1 (Serratia marcescens, UniProt P52699); assay: biochemical; type: biochemical
# Protocol: Enzyme Activity: Determination of IC50
# The Class B enzyme activities were measured in the presence of the test inhibitor in a fluorescence assay against a commercially available substrate consisting of a cephalosporin core linking 7-hydroxycoumarin to fluorescein (CCF2-FA). The enzyme (NDM-1, IMP-1 or VIM-1) and the substrate were diluted in 100 mM KH2PO4 buffer (pH 7) containing 0.005% Tween-20 and 10 μM ZnSO4. […] The test inhibitor was dissolved in dimethylsulfoxide and diluted 1:50 in the assay, resulting in a final concentration range of 20 uM to 0.00063 uM. In a 384-well microplate, the test inhibitor was incubated with the metallo-β-lactamase enzyme and the substrate for 2 hours at 25° C. Fluorescence at 460 nm following excitation at 405 nm was measured. The IC50 value was determined from semi-logarithmic plots of enzyme inhibition versus inhibitor concentration, with a curve generated using a 4-parameter fit.
# VIM-1 = VIM-1 (Pseudomonas aeruginosa (strain ATCC 15692 / DSM 22644 / CIP 104116 / JCM 14847 / LMG 12228 / 1C / PRS 101 / PAO1), UniProt A0A0F7KYQ8); assay: Enzyme activity: determination of IC50, fluorescence assay with CCF2-FA substrate (VIM-1); type: biochemical
# [1] = test system: Escherichia coli expressing NDM-1 (CLB30016); assay: Antibiotic potentiation activity: synergistic concentration (MITC95) with imipenem, OD600 growth; type: cell-based; conditions: 95% growth inhibition
# In short: (§1)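 CLB30005 was precultured on Mueller Hinton agar with 8 ug/ml imipenem, the other strains on trypticase soy agar with 5% sheep blood, overnight at 35 °C. Saline suspensions diluted 1:100 in 1.1× CAMHB received compound and 4 μg/ml imipenem, then 22–24 h at 35 °C before absorbance reading.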
# [2] = test system: Klebsiella pneumoniae expressing VIM-1 (IHMA599644); assay: as above; type: cell-based; conditions: 95% growth inhibition
# In short: as §1
# [3] = test system: Serratia marcescens expressing IMP-1 (CL5741); assay: as above; type: cell-based; conditions: 95% growth inhibition
# In short: as §1
# [4] = NDM-1 enzyme, CCF2-FA fluorescence assay, read-out: NDM-1 IC50
# [5] = IMP-1 enzyme, CCF2-FA fluorescence assay, read-out: IMP-1 IC50
# [6] = VIM-1 enzyme, CCF2-FA fluorescence assay, read-out: VIM-1 IC50
# [7] = Escherichia coli expressing NDM-1 (CLB30016)
# [8] = Klebsiella pneumoniae expressing VIM-1 (IHMA599644)
# [9] = Serratia marcescens expressing IMP-1 (CL5741)
# [10] = NDM-1 enzyme, CCF2-FA substrate, read-out: NDM-1 IC50
# [11] = IMP-1 enzyme, CCF2-FA substrate, read-out: IMP-1 IC50
# [12] = VIM-1 enzyme, CCF2-FA substrate, read-out: VIM-1 IC50
# [13] = Klebsiella pneumoniae IHMA599644 (VIM-1)
# [14] = Serratia marcescens CL5741 (IMP-1)
# [15] = VIM-1 IC50, VIM-1 enzyme, CCF2-FA substrate
# NDM-1, sequence (C7C422 whole entry, looked up, species assumed): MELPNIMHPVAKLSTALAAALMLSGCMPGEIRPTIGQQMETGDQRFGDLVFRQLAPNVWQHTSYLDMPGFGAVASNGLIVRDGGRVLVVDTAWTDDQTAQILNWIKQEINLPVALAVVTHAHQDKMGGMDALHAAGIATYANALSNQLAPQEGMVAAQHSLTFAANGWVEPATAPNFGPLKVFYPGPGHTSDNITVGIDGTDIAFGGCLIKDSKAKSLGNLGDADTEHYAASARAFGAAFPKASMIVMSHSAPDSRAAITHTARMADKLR
# IMP-1, sequence (P52699 whole entry, looked up): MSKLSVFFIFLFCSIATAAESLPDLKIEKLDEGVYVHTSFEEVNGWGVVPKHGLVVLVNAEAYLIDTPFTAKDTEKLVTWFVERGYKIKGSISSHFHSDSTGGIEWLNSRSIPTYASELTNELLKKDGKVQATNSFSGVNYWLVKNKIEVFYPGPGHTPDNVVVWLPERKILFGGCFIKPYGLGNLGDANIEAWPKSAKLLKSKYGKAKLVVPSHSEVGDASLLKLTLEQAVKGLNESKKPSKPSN
SMILES,IC50 (NDM-1; [4]),IC50 (IMP-1; [5]),IC50 (VIM-1; [6]),"Escherichia coli MITC95 [1, 7]","Klebsiella pneumoniae MITC95 [2, 8]","Serratia marcescens MITC95 [3, 9]",IC50 (NDM-1; [10]),IC50 (IMP-1; [11]),IC50 (VIM-1; [12]),"Escherichia coli MITC95 ([1]; (CLB30016, NDM-1))","Klebsiella pneumoniae MITC95 [2, 13]","Serratia marcescens MITC95 [3, 14]",IC50 (VIM-1; [15]),IC50 (IMP-1),IC50 (NDM-1)
"NS(=O)(=O)c1c(C(F)(F)F)ccc(-c2cccc3ncccc23)c1-c1nn[nH]n1 [Example 486, 3-(Quinolin-5-yl)-2-(2H-tetrazol-5-yl)-6-(trifluoromethyl)benzenesulfonamide]",0.192 nM,1.19 nM,0.134 nM,1.208 µM,4.531 µM,0.1367 µM,,,,,,,,,
"Cc1ccc(C(F)(F)F)c(S(N)(=O)=O)c1-c1nnn[nH]1 [Example 487, 3-methyl-2-(1H-tetrazol-5-yl)-6-(trifluoromethyl)benzenesulfonamide]",102 nM,56.4 nM,70.4 nM,1.563 µM,25 µM,1.563 µM,,,,,,,,,
"CC(C)c1ccc(C(F)(F)F)c(S(N)(=O)=O)c1-c1nnn[nH]1 [Example 488, 3-isopropyl-2-(1H-tetrazol-5-yl)-6-(trifluoromethyl)benzenesulfonamide]",7.9 nM,18.8 nM,3.44 nM,1.563 µM,4.688 µM,0.7813 µM,,,,,,,,,
"NS(=O)(=O)c1c(C(F)(F)F)ccc(C2CC2)c1-c1nnn[nH]1 [Example 489, 3-cyclopropyl-2-(1H-tetrazol-5-yl)-6-(trifluoromethyl)benzenesulfonamide]",19.6 nM,20.7 nM,9.83 nM,1.563 µM,9.375 µM,0.7813 µM,,,,,,,,,
"NS(=O)(=O)c1c(C(F)(F)F)ccc(C2CCCC2)c1-c1nnn[nH]1 [Example 490, 3-cyclopentyl-2-(1H-tetrazol-5-yl)-6-(trifluoromethyl)benzenesulfonamide]",2.57 nM,5.61 nM,2.35 nM,1.281 µM,9.375 µM,0.375 µM,,,,,,,,,
"NS(=O)(=O)c1c(C(F)(F)F)ccc(C2CCCCC2)c1-c1nnn[nH]1 [Example 491, 3-cyclohexyl-2-(1H-tetrazol-5-yl)-6-(trifluoromethyl)benzenesulfonamide]",,,,,,,0.435 nM,1.11 nM,0.505 nM,0.6406 µM,3.792 µM,0.0625 µM,,,
"NS(=O)(=O)c1c(C(F)(F)F)ccc(C2CCNc3ccccc32)c1-c1nnn[nH]1 (stereo not drawn) [Example 493, 3-(1,2,3,4-Tetrahydroquinolin-4-yl)-2-(1H-tetrazol-5-yl)-6-(trifluoromethyl)benzenesulfonamide]",,,,,,,1.69 nM,4.5 nM,0.133 nM,1.563 µM,3.125 µM,0.3906 µM,,,
"NS(=O)(=O)c1c(C(F)(F)F)ccc(C2CCn3cncc3C2)c1-c1nnn[nH]1 (stereo not drawn) [Example 494, 3-(5,6,7,8-Tetrahydroimidazo[1,5-a]pyridin-7-yl)-2-(1H-tetrazol-5-yl)-6-(trifluoromethyl)benzenesulfonamide]",,,,,,,4.43 nM,13 nM,0.427 nM,0.3906 µM,1.563 µM,1.172 µM,,,
NS(=O)(=O)c1c(C(F)(F)F)ccc([C@H]2CC[C@@H](O)CC2)c1-c1nnn[nH]1 [Example 495],,,,,,,1.87 nM,4.26 nM,22.1 nM,2.344 µM,25 µM,0.5859 µM,,,
NS(=O)(=O)c1c(C(F)(F)F)ccc([C@H]2CC[C@H](O)CC2)c1-c1nnn[nH]1 [Example 496],,,,,,,0.506 nM,1.09 nM,0.397 nM,1.172 µM,3.125 µM,0.3906 µM,,,
"NCC1(N)CCC(c2ccc(C(F)(F)F)c(S(N)(=O)=O)c2-c2nnn[nH]2)CC1 (stereo not drawn) [Example 497, 3-(4-Amino-4-(aminomethyl)cyclohexyl)-2-(1H-tetrazol-5-yl)-6-(trifluoromethyl)benzenesulfonamide]",,,,,,,3.06 nM,25.8 nM,,0.5859 µM,6.25 µM,0.3906 µM,59.5 nM,,
"NCC[C@H]1CC[C@@H](c2ccc(C(F)(F)F)c(S(N)(=O)=O)c2-c2nnn[nH]2)CC1 [Example 498, 3-(cis 4-(2-aminoethyl)cyclohexyl)-2-(1H-tetrazol-5-yl)-6-(trifluoromethyl)benzenesulfonamide]",,,,,,,2.15 nM,5.5 nM,,0.3906 µM,4.688 µM,0.1953 µM,6.37 nM,,
"NCC[C@H]1CC[C@H](c2ccc(C(F)(F)F)c(S(N)(=O)=O)c2-c2nnn[nH]2)CC1 [Example 499, 3-(trans 4-(2-aminoethyl)cyclohexyl)-2-(1H-tetrazol-5-yl)-6-(trifluoromethyl)benzenesulfonamide]",,,,,,,1.93 nM,7.04 nM,,0.7813 µM,1.172 µM,0.1953 µM,0.328 nM,,
"NC[C@H]1CC[C@@H](c2ccc(C(F)(F)F)c(S(N)(=O)=O)c2-c2nnn[nH]2)CC1 [Example 500, 3-(cis 4-(Aminomethyl)cyclohexyl)-2-(1H-tetrazol-5-yl)-6-(trifluoromethyl)benzenesulfonamide]",,,,,,,3.52 nM,,12.2 nM,2.344 µM,31.25 µM,1.563 µM,,9.86 nM,
"NC[C@H]1CC[C@H](c2ccc(C(F)(F)F)c(S(N)(=O)=O)c2-c2nnn[nH]2)CC1 [Example 501, 3-(trans 4-(aminomethyl)cyclohexyl)-2-(1H-tetrazol-5-yl)-6-(trifluoromethyl)benzenesulfonamide]",,,,,,,1.52 nM,,0.516 nM,1.172 µM,1.563 µM,1.563 µM,,5.39 nM,
"N=C(N)NC[C@H]1CC[C@@H](c2ccc(C(F)(F)F)c(S(N)(=O)=O)c2-c2nnn[nH]2)CC1 [Example 502, 3-(cis 4-(guanidinomethyl)cyclohexyl)-2-(1H-tetrazol-5-yl)-6-(trifluoromethyl)benzenesulfonamide]",,,,,,,,1.19 nM,1.44 nM,1.563 µM,9.375 µM,1.563 µM,,,0.52 nM
"N=C(N)NC[C@H]1CC[C@H](c2ccc(C(F)(F)F)c(S(N)(=O)=O)c2-c2nnn[nH]2)CC1 [Example 503, 3-(trans 4-(guanidinomethyl)cyclohexyl)-2-(1H-tetrazol-5-yl)-6-(trifluoromethyl)benzenesulfonamide]",,,,,,,,4.2 nM,0.183 nM,0.1953 µM,0.7813 µM,0.1953 µM,,,1.14 nM
